{
  "source": "patent US11028136B2",
  "about": "“Tumor antigen peptide” (Sapporo Medical University, priority 2014, dated 2021)",
  "format_in_all_cases": "cell-based",
  "key": {"[1]": {"test_system": "CaSki", "test": "Sphere formation capability of siRNA-transfected cells", "settings": "FIG. 16-1(a)", "protocol": "(§1) Sphere formation has been reported as being one of the indicators of cancer stem cell markers in cervical cancer. Therefore, a spheroid formation assay using a low adherent cell culture plate was carried out. Cervical cancer cell lines (CaSki, TCS, MS751, SKG-IIIb, ME-180, and SiHa) were cultured using a multi well plate having an ultra low adherent surface (Ultra Low Attachment 6-well plate, Corning). Adherent cultured cells were peeled off with a solution containing 0.25% trypsin in 2 mM EDTA, and were plated on each well at 10^3 cells/well. As a medium, one prepared by adding to a serum-free DMEM/F-12 medium 20 ng/mL of h-EGF (acquired from R&D systems), 10 ng/mL of b-FGF (acquired from R&D systems), 1% penicillin/streptomycin (acquired from GIBCO), 4 μg/mL of heparin, and a final concentration of 1% of N2 supplement (acquired from WAKO) was used, culturing was carried out under normal culturing conditions for 7 days or 14 days, and formation of spheroids of 100 μm or greater was confirmed for all of the cell lines (FIG. 1). […]\n(§2) MS751 and CaSki were each transfected with siRNAs for BORIS that had been designed to have the sequences shown in the table below in accordance with the protocol described in the Instructions by the manufacturer for the Lipofectamine RNAiMAX used. Cells were analyzed 48 hours after transfection. […]"}, "[2]": {"test_system": "MS751", "test": "Sphere formation capability of siRNA-transfected cells", "settings": "FIG. 16-1(b)", "protocol": "as §1, §2"}, "[3]": {"test_system": "CaSki cell line", "test": "Cell proliferation of siRNA-transfected cells", "settings": "FIG. 14-1(b), 14-2", "protocol": "(§3) MS751 and CaSki were each transfected with siRNAs for BORIS that had been designed to have the sequences shown in the table below in accordance with the protocol described in the Instructions by the manufacturer for the Lipofectamine RNAiMAX used. Cells were analyzed 48 hours after transfection. Trilencer-27 Universal Scrambled Negative Control siRNA (SR30004, Origene) was used as a negative control."}, "[4]": {"test_system": "CaSki cell line", "test": "Stemness gene expression of siRNA-transfected cells", "settings": "FIG. 15", "protocol": "as §3"}},
  "data": [
    {"substance": "rGrGrArArArUrArCrCrArCrGrArUrGrCrArArArUrUrUrCAT [siRNA2]", "values": [
      {"measurement": "Sphere formation capability", "setting": "[1]", "result": "markedly suppressed"},
      {"measurement": "Sphere formation capability", "setting": "[2]", "result": "markedly suppressed"},
      {"measurement": "Cell proliferation", "setting": "[3]", "result": "slightly suppressed"},
      {"measurement": "Stemness gene suppression", "setting": "[4]", "result": "did not occur at all"}
    ]}
  ]
}
